Measurements: patent publication US11597702B2, “Substituted pyrazoles FFA4/GPR120 receptor agonists” (AXXAM S.P.A., priority 2018, dated 2023)

Target: T1, GPR120 (Homo sapiens, UniProt Q5NUL3)
T1 construct: expressed in transfected cells; host or cells: CHO mitoPhotinaGPR120 cells
T1 sequence (Q5NUL3 1-361): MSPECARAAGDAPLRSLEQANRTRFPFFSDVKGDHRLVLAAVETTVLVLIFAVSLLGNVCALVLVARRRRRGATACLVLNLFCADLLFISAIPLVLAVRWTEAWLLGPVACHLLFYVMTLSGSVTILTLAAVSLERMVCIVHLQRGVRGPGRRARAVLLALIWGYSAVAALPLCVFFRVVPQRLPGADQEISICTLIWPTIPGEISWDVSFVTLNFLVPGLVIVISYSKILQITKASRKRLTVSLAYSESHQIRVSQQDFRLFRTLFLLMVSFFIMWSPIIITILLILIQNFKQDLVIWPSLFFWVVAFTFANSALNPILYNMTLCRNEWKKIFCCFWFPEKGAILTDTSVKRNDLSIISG
Assay: GPR120 agonism in CHO mitoPhotinaGPR120 cell based assay with fluorescent (Fluo-8 calcium, FLIPRTetra) readout, Agonist Mode, dose response
Conditions: CHO mitoPhotinaGPR120 cells, Fluo-8 No Wash Ca2+ dye, dose response in quadruplicate, 0.0033% fatty acid free BSA
Protocol: Compounds of the invention were tested for GPR120 agonism in a CHO mitoPhotinaGPR120 cell based assay with fluorescent readout in Agonist Mode in dose response in quadruplicate with intra-plate modality.
Twenty (20) h after seeding, growth medium was manually removed and cells were starved in the presence of 25 μL/w of Standard Tyrode's Buffer. After 3 h, cells were loaded with 20 μL/w of 0.5× Fluo-8 No Wash (AAT Bioquest, Inc.) Ca2+ sensitive dye prepared in Standard Tyrode's Buffer. Cells were incubated for 1 h at room temperature in the dark. Ten (10) μL/w 3× of controls and compounds were diluted in Standard Tyrode's Buffer+0.01% fatty acid free BSA (final concentration=0.0033%) and injected at the FLIPRTetra®, recording the kinetic calcium traces for 3 minutes. Standard Tyrode's buffer composition: 5 mM KCl, 130 mM NaCl, 2 mM CaCl2), 5 mM NaHCO3, 1 mM MgCl2, 20 mM HEPES, pH7.4.

Compound | EC50 [µM]
Cc1nn(-c2ccccc2)c(COc2c(F)cc(CC(C)CO)cc2F)c1C#N (racemic) [Example 43, 5-[[2,6-difluoro-4-(3-hydroxy-2-methyl-propyl)phenoxy]methyl]-3-methyl-1-phenyl-pyrazole-4-carbonitrile] | 0.45
Cc1nn(-c2ccccc2)c(COc2ccc(CCC(C)O)cc2)c1C#N (racemic) [Example 47, 5-[[4-(3-hydroxybutyl)phenoxy]methyl]-3-methyl-1-phenyl-pyrazole-4-carbonitrile] | 1.65
Cc1nn(-c2ccccc2)c(COc2c(F)cc(CC(C)CO)cc2F)c1C#N (single isomer, unassigned; (+)) [Example 43A, (+)-5-[[2,6-difluoro-4-(3-hydroxy-2-methyl-propyl)phenoxy]methyl]-3-methyl-1-phenyl-pyrazole-4-carbonitrile] | 0.34
Cc1nn(-c2ccccc2)c(COc2c(F)cc(CC(C)CO)cc2F)c1C#N (single isomer, unassigned; (+)) [Example 43B, (+)-5-[[2,6-difluoro-4-(3-hydroxy-2-methyl-propyl)phenoxy]methyl]-3-methyl-1-phenyl-pyrazole-4-carbonitrile] | 1.69
Cc1nn(-c2ccccc2)c(COc2ccc(CCC(C)O)cc2)c1C#N (single isomer, unassigned; (+)) [Example 47A, (+)-5-[[4-(3-hydroxybutyl)phenoxy]methyl]-3-methyl-1-phenyl-pyrazole-4-carbonitrile] | 0.5
Cc1nn(-c2ccccc2)c(COc2ccc(CCC(C)O)cc2)c1C#N (single isomer, unassigned; (-)) [Example 47B, (−)-5-[[4-(3-hydroxybutyl)phenoxy]methyl]-3-methyl-1-phenyl-pyrazole-4-carbonitrile] | 2.36
Cc1nn(-c2ccccc2)c(COc2ccc(C#N)cc2)c1C#N [Example 1, 5-[(4-cyanophenoxy)methyl]-3-methyl-1-phenyl-pyrazole-4-carbonitrile] | 1.29
Cc1nn(-c2ccccc2)c(COc2ccc(CO)cc2Cl)c1C#N [Example 2, 5-[[2-chloro-4-(hydroxymethyl)phenoxy]methyl]-3-methyl-1-phenyl-pyrazole-4-carbonitrile] | 1.24
COc1ccc(OCc2c(C#N)c(C)nn2-c2ccccc2)cc1 [Example 3, 5-[(4-methoxyphenoxy)methyl]-3-methyl-1-phenyl-pyrazole-4-carbonitrile] | 1.31
Cc1ccc(OCc2c(C#N)c(C)nn2-c2ccccc2)cc1 [Example 4, 3-methyl-5-[(4-methylphenoxy)methyl]-1-phenyl-pyrazole-4-carbonitrile] | 1.67
Cc1nn(-c2ccccc2)c(COc2ccc(CO)cc2)c1C#N [Example 5, 5-[[4-(hydroxymethyl)phenoxy]methyl]-3-methyl-1-phenyl-pyrazole-4-carbonitrile] | 2.31
Cc1nn(-c2ccccc2)c(COc2ccc(CCO)cc2)c1C#N [Example 6, 5-[[4-(2-hydroxyethyl)phenoxy]methyl]-3-methyl-1-phenyl-pyrazole-4-carbonitrile] | 1.1
Cc1nn(-c2ccccc2)c(COc2ccccc2)c1C#N [Example 8, 3-methyl-5-(phenoxymethyl)-1-phenyl-pyrazole-4-carbonitrile] | 1.52
Cc1nn(-c2ccccc2)c(COc2ccc(C#N)cc2F)c1C#N [Example 10, 5-[(4-cyano-2-fluoro-phenoxy)methyl]-3-methyl-1-phenyl-pyrazole-4-carbonitrile] | 3.39
Cc1nn(-c2ccccc2)c(COc2ccc(CO)c(F)c2F)c1C#N [Example 14, 5-[[2,3-difluoro-4-(hydroxymethyl)phenoxy]methyl]-3-methyl-1-phenyl-pyrazole-4-carbonitrile] | 3.09
Cc1cc(CO)ccc1OCc1c(C#N)c(C)nn1-c1ccccc1 [Example 16, 5-[[4-(hydroxymethyl)-2-methyl-phenoxy]methyl]-3-methyl-1-phenyl-pyrazole-4-carbonitrile] | 0.86

Compound | EC50 [µM]
Cc1cc(CO)cc(C)c1OCc1c(C#N)c(C)nn1-c1ccccc1 [Example 17, 5-[[4-(hydroxymethyl)-2,6-dimethyl-phenoxy]methyl]-3-methyl-1-phenyl-pyrazole-4-carbonitrile] | 1.01
Cc1nn(-c2ccccc2)c(COc2ccc(F)cc2)c1C#N [Example 18, 5-[(4-fluorophenoxy)methyl]-3-methyl-1-phenyl-pyrazole-4-carbonitrile] | 1.41
Cc1nn(-c2ccccc2)c(COc2ccc(CO)cc2F)c1C#N [Example 20, 5-[[2-fluoro-4-(hydroxymethyl)phenoxy]methyl]-3-methyl-1-phenyl-pyrazole-4-carbonitrile] | 1.77
Cc1nn(-c2ccccc2)c(COc2c(F)cc(CO)cc2F)c1C#N [Example 21, 5-[[2,6-difluoro-4-(hydroxymethyl)phenoxy]methyl]-3-methyl-1-phenyl-pyrazole-4-carbonitrile] | 1.33
Cc1nn(-c2ccccc2)c(COc2ccccc2CO)c1C#N [Example 23, 5-[[2-(hydroxymethyl)phenoxy]methyl]-3-methyl-1-phenyl-pyrazole-4-carbonitrile] | 8.13
Cc1nn(-c2ccccc2)c(COc2cccc(CO)c2)c1C#N [Example 24, 5-[[3-(hydroxymethyl)phenoxy]methyl]-3-methyl-1-phenyl-pyrazole-4-carbonitrile] | 7.31
Cc1cccc(C)c1OCc1c(C#N)c(C)nn1-c1ccccc1 [Example 25, 5-[(2,6-dimethylphenoxy)methyl]-3-methyl-1-phenyl-pyrazole-4-carbonitrile] | 0.94
Cc1ccccc1OCc1c(C#N)c(C)nn1-c1ccccc1 [Example 26, 3-methyl-5-[(2-methylphenoxy)methyl]-1-phenyl-pyrazole-4-carbonitrile] | 0.58
Cc1nn(-c2ccccc2)c(COc2ccc(CC#N)cc2)c1C#N [Example 29, 5-[[4-(cyanomethyl)phenoxy]methyl]-3-methyl-1-phenyl-pyrazole-4-carbonitrile] | 4.22
Cc1cccc(OCc2c(C#N)c(C)nn2-c2ccccc2)c1C [Example 30, 5-[(2,3-dimethylphenoxy)methyl]-3-methyl-1-phenyl-pyrazole-4-carbonitrile] | 0.71
Cc1nn(-c2ccccc2)c(COc2c(F)cc(CCCO)cc2F)c1C#N [Example 32, 5-[[2,6-difluoro-4-(3-hydroxypropyl)phenoxy]methyl]-3-methyl-1-phenyl-pyrazole-4-carbonitrile] | 0.09
Cc1nn(-c2ccccc2)c(COc2ccc(CCO)cc2F)c1C#N [Example 33, 5-[[2-fluoro-4-(2-hydroxyethyl)phenoxy]methyl]-3-methyl-1-phenyl-pyrazole-4-carbonitrile] | 1.27
Cc1nn(-c2ccccc2)c(COc2ccc(CCCO)cc2)c1C#N [Example 35, 5-[[4-(3-hydroxypropyl)phenoxy]methyl]-3-methyl-1-phenyl-pyrazole-4-carbonitrile] | 0.15
CCc1ccccc1OCc1c(C#N)c(C)nn1-c1ccccc1 [Example 39, 5-[(2-ethylphenoxy)methyl]-3-methyl-1-phenyl-pyrazole-4-carbonitrile] | 7.24
Cc1nn(-c2ccccc2)c(COc2cccc(F)c2)c1C#N [Example 40, 5-[(3-fluorophenoxy)methyl]-3-methyl-1-phenyl-pyrazole-4-carbonitrile] | 0.79
